Reference: patent US11912693B2, “Compounds for modulating S1P1 activity and methods of using the same” (TREVENA, INC., priority 2017, dated 2024)

Experiments:
[1] = target: T1, human sphingosine-1-phosphate receptor 1 (S1P1) (Homo sapiens (Human), UniProt P21453); assay: β-Arrestin2 recruitment assay (PathHunter), S1P1 CHO-K1 cells; format: cell-based; settings: for hS1P1 B-arrestin2 pEC50: β-arrestin2 recruitment, S1P1 CHO-K1 cells; for Emax: CHO-K1, efficacy (SPAN) normalized to fingolimod, read-out: hS1P1 B-arrestin2 SPAN
How it was run: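 Enzyme-fragment complementation read-out: agonist-driven β-arrestin2 binding to ProLink-tagged human S1P1 in stable CHO-K1 cells restores β-galactosidase, measured 1 h at room temperature after a 60 min 37° C. compound incubation. Potency as pEC50, efficacy relative to fingolimod (SPAN).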
Target sequence in this assay (P21453 whole entry, looked up, the tested form may be a part): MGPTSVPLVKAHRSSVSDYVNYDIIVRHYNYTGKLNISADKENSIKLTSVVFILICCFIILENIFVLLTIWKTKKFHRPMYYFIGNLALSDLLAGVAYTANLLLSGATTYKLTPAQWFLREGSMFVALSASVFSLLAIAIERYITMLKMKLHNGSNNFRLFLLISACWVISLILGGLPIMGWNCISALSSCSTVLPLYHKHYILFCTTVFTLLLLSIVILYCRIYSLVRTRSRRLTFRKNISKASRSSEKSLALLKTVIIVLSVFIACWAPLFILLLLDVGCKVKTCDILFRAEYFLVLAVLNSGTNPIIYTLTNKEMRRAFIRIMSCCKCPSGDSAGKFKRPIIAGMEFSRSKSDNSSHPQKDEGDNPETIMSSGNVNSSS
Target sequence in this assay (P32121 whole entry partner, looked up, the tested form may be a part): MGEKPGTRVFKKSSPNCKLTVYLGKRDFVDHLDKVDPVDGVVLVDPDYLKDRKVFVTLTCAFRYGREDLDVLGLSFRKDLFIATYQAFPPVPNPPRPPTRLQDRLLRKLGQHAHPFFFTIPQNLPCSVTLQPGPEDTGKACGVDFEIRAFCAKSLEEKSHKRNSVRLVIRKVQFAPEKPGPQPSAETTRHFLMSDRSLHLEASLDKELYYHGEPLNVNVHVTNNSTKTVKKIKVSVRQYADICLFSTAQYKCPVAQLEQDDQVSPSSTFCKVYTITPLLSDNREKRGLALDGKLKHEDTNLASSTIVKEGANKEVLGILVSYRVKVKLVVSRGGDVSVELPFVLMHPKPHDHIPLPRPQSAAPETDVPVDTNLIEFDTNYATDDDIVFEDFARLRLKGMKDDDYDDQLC

[2] = target: T1, human sphingosine-1-phosphate receptor 1 (S1P1); assay: Inhibition of cAMP production (HTRF cAMP HiRange), S1P1 CHO-K1 cells; format: cell-based; settings: for hS1P1 cAMP pEC50: inhibition of cAMP production, S1P1 CHO-K1 cells; for Emax: CHO-K1, efficacy (SPAN) normalized to fingolimod, read-out: hS1P1 cAMP SPAN
How it was run: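 CHO-K1 cells stably co-expressing human S1P1 (C-terminal Prolink tag) and EA-β-arrestin2 were grown in AssayComplete Media 6 at 37° C. and 5% CO2, plated, and incubated overnight. Agonist-driven inhibition of intracellular cAMP was read by TR-FRET with the HTRF cAMP HiRange kit on a PheraStar reader. Potency is pEC50, and efficacy (SPAN) is normalized to fingolimod.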
Target sequence in this assay (P21453 whole entry, looked up, the tested form may be a part): as the sequence (P21453 whole entry, looked up, the tested form may be a part) above

| SMILES | hS1P1 B-arrestin2 pEC50 [1] | hS1P1 cAMP pEC50 [2] | Emax [1] [%] | Emax [2] [%] |
| --- | --- | --- | --- | --- |
| CC(C)Oc1ccc(-c2ncc(-c3ccc4c(c3)nnn4C(C)C)cn2)cc1C#N [Compound 595, 2-isopropoxy-5-(5-(1-isopropyl-1H-benzo[d][1,2,3]triazol-5-yl)pyrimidin-2-yl)benzonitrile] | >5 | >6.5 | – | – |
| CC(C)Nc1ccc(-c2ncc(-c3ccc4c(c3)nnn4C(C)C)cn2)cc1C#N [Compound 596, 5-(5-(1-isopropyl-1H-benzo[d][1,2,3]triazol-5-yl)pyrimidin-2-yl)-2-(isopropylamino)benzonitrile] | >5 | >6.5 | – | – |
| Cc1cnccc1-c1noc(-c2ccc3c(c2)nnn3CC(C)(C)O)n1 [Compound 597, 2-methyl-1-{5-[3-(3-methylpyridin-4-yl)-1,2,4-oxadiazol-5-yl]-1H-1,2,3-benzotriazol-1-yl}propan-2-ol] | >5 | >6.5 | – | – |
| CNc1ccccc1-c1nc(-c2ccc3c(c2)nnn3C(C)C)no1 [Compound 599, N-methyl-2-{3-[1-(propan-2-yl)-1H-1,2,3-benzotriazol-5-yl]-1,2,4-oxadiazol-5-yl}aniline] | >5 | >6.5 | > 75 | < 75 |
| Cc1ccccc1-c1cc(-c2ccc3c(c2)nnn3C(C)C)c[nH]1 [Compound 601, 5-[5-(2-methylphenyl)-1H-pyrrol-3-yl]-1-(propan-2-yl)-1H-1,2,3-benzotriazole] | >5 | <6.5 | – | – |
| CC(C)n1nnc2cc(-c3noc(-c4ncccc4O)n3)ccc21 [Compound 602, 2-{3-[1-(propan-2-yl)-1H-1,2,3-benzotriazol-5-yl]-1,2,4-oxadiazol-5-yl}pyridin-3-ol] | <5 | <6.5 | – | – |
| CCC1(CC)CC(=O)c2cc(-c3nc(-c4cncc(S(N)(=O)=O)c4)no3)ccc2O1 [Compound 603, 5-(5-(2,2-diethyl-4-oxochroman-6-yl)-1,2,4-oxadiazol-3-yl)pyridine-3-sulfonamide] | >5 | >6.5 | – | – |
| CCC1(CC)CC(=O)c2cc(-c3nc(-c4sccc4OC)no3)ccc2O1 [Compound 604, 2,2-diethyl-6-(3-(3-methoxythiophen-2-yl)-1,2,4-oxadiazol-5-yl)chroman-4-one] | >5 | >6.5 | – | – |
| COc1ccncc1-c1nc(-c2ccc3c(c2)nnn3C(C)C)no1 [Compound 605, 3-(1-isopropyl-1H-benzo[d][1,2,3]triazol-5-yl)-5-(4-methoxypyridin-3-yl)-1,2,4-oxadiazole] | >5 | >6.5 | > 75 | > 75 |
| Cc1ccccc1-c1nc(-c2ccc3c(c2)nnn3C(C)(C)CO)no1 [Compound 609, 2-methyl-2-(5-(5-(o-tolyl)-1,2,4-oxadiazol-3-yl)-1H-benzo[d][1,2,3]triazol-1-yl)propan-1-ol] | <5 | >6.5 | – | – |
| COc1ccc(-c2nc(-c3ccc4c(c3)nnn4C(C)(C)CO)no2)c(C)c1 [Compound 610, 2-(5-(5-(4-methoxy-2-methylphenyl)-1,2,4-oxadiazol-3-yl)-1H-benzo[d][1,2,3]triazol-1-yl)-2-methylpropan-1-ol] | <5 | <6.5 | – | – |
| Cc1ccsc1-c1nc(-c2ccc3c(c2)nnn3C(C)(C)CO)no1 [Compound 611, 2-methyl-2-(5-(5-(3-methylthiophen-2-yl)-1,2,4-oxadiazol-3-yl)-1H-benzo[d][1,2,3]triazol-1-yl)propan-1-ol] | >5 | >6.5 | < 75 | < 75 |
| COc1cccnc1-c1nc(-c2ccc3c(c2)nnn3C(C)C)no1 [Compound 612, 3-(1-isopropyl-1H-benzo[d][1,2,3]triazol-5-yl)-5-(3-methoxypyridin-2-yl)-1,2,4-oxadiazole] | >5 | >6.5 | > 75 | < 75 |
| Cc1ccncc1-c1noc(-c2ccc3c(c2)NC(=O)CN3)n1 [Compound 613, 7-[3-(4-methylpyridin-3-yl)-1,2,4-oxadiazol-5-yl]-1,2,3,4-tetrahydroquinoxalin-2-one] | <5 | <6.5 | – | – |
| COc1ccccc1-c1noc(-c2ccc3c(c2)NC(=O)CN3)n1 [Compound 614, 7-[3-(2-methoxyphenyl)-1,2,4-oxadiazol-5-yl]-1,2,3,4-tetrahydroquinoxalin-2-one] | <5 | <6.5 | – | – |
| CCC1(CC)CC(=O)c2cc(-c3nc(-c4cnccn4)no3)ccc2O1 [Compound 617, 2,2-diethyl-6-(3-(pyrazin-2-yl)-1,2,4-oxadiazol-5-yl)chroman-4-one] | <5 | <6.5 | – | – |
| COc1ncccc1-c1noc(-c2ccc3c(c2)nnn3C(C)C)n1 [Compound 619, 5-(1-isopropyl-1H-benzo[d][1,2,3]triazol-5-yl)-3-(2-methoxypyridin-3-yl)-1,2,4-oxadiazole] | >5 | >6.5 | – | – |
| CCC1(CC)CC(=O)c2cc(-c3nc(-c4cncnc4)no3)ccc2O1 [Compound 620, 2,2-diethyl-6-(3-(pyrimidin-5-yl)-1,2,4-oxadiazol-5-yl)chroman-4-one] | >5 | >6.5 | – | – |
| CCC1(CC)CC(=O)c2cc(-c3nc(-c4cccnn4)no3)ccc2O1 [Compound 621, 2,2-diethyl-6-(3-(pyridazin-3-yl)-1,2,4-oxadiazol-5-yl)chroman-4-one] | <5 | <6.5 | – | – |
| CCC1(CC)CC(=O)c2cc(-c3nc(-c4ccc5ncoc5c4)no3)ccc2O1 [Compound 622, 6-(3-(benzo[d]oxazol-6-yl)-1,2,4-oxadiazol-5-yl)-2,2-diethylchroman-4-one] | <5 | >6.5 | – | – |
| COc1ccccc1-c1nc(-c2ccc3c(c2)nnn3C(C)(C)CO)no1 [Compound 623, 2-(5-(5-(2-methoxyphenyl)-1,2,4-oxadiazol-3-yl)-1H-benzo[d][1,2,3]triazol-1-yl)-2-methylpropan-1-ol] | <5 | <6.5 | > 75 | > 75 |
| CCc1ccccc1-c1nc(-c2ccc3c(c2)nnn3C(C)(C)CO)no1 [Compound 624, 2-(5-(5-(2-ethylphenyl)-1,2,4-oxadiazol-3-yl)-1H-benzo[d][1,2,3]triazol-1-yl)-2-methylpropan-1-ol] | <5 | <6.5 | > 75 | < 75 |
